Consider 3 molecules from ChEMBL document CHEMBL1134312, “Design, synthesis, and biological activity of a novel non-cisplatin-type platinum-acridine pharmacophore” (J Med Chem, 2001).

A word on the IC50: it is the point on the concentration scale where inhibition reaches its midpoint.

A short description of assay [1]: Cytotoxicity against human ovarian 2008 (wild type) cell lines. Format: functional, cell-based.
In a further assay the test system is HL-60. Kind of assay: Cytotoxicity against HL-60 leukemia cells. Format: functional, cell-based, Homo sapiens.
The next assay concerns C13. In words: Cytotoxicity against cisplatin-resistant cell lines (C13*). Format: functional, cell-based, Homo sapiens.

Where only a bound is given, the exact number is not on record here.

Consider `CNC(=S)N(C)CCNc1c2ccccc2nc2ccccc12`, for which the 50% inhibitory concentration (IC50) in assay [1] (Homo sapiens) is 2.2 µM; in the assay on HL-60 (Homo sapiens, HL-60), 11 µM; in the assay with C13 (Homo sapiens, C13), 3.7 µM.

Regarding “2-(9-acridiniumylamino)ethyl(methyl)amino(imino)methyl(methyl)amine1-PtCl(en)”, the 50% inhibitory concentration (IC50) worked out at 3.8 µM in assay [1], 0.13 µM with HL-60 (hl-60) and 9.6 µM with C13 (c13).

With “9-acridinylmethylamino-methylaminomethanethione1-PtCl(en)”, the values for the half-inhibitory concentration (IC50) (in assay [1]; with HL-60 (hl-60); with C13 (c13)) were above 100 µM, 75 µM and above 100 µM, respectively.
